In patent publication US20200368211A1, “INHIBITION OF GAMMA-GLUTAMYLTRANSFERASE AND GLUTATHIONE CATABOLISM TO ENHANCE THE EFFICACY OF NF-KB SIGNALLING PATHWAY INHIBITORS” (UNIVERSITAET HEIDELBERG, priority 2017, published 2020):
Entries after “also recorded” stand apart in the source; their conditions may differ.

Columns and labels:
[1] = human plasma, stated as achievable; cited from earlier work
MOLM13 cells [2] = experiment: MTT cell proliferation assay, MOLM13 cells; type: cell-based, human; conditions: for Effect of auranofin and BSO low-dose combination on activity of NF-κB inhibitors, MOLM13: auranofin 0.25-0.5 μM plus BSO 1.25-10 μM with BAY 11-7082 or EF24
Description: For metabolic activity assays, here MTT-assays, cell density was 3×10^4 cells per well (96 well plate). For ROS/superoxide detection assays cell density was 1×10^5 per tube (volume 1 ml). […] The MTT or XTT assay is the most reliable for assessment of cell growth. In principal all assays are based on staining of viable cells after treatment. Cytotoxic effects in cell lines may also be assessed by [^3H] thymidine incorporation (see below). Cell proliferation was assessed by the MTT assay. […] The plates were incubated for 72 h under standard conditions. After addition of 15 μl of a 5 mg/ml MTT solution (MTT; Sigma, Germany) to each well and incubation for another 4 h, 100 μl/well of a 10% sodium dodecyl sulphate solution in 0.01 M hydrochloric acid were added and the plates were incubated overnight under the same conditions (stain development). Subsequently, the absorbance of each well at 540 nm (reference wavelength 690 nm) was recorded with an absorbance plate reader (Sunrise, Tecan, Switzerland). Blank control values (no drug, no cells) were subtracted from the sample values and the means of replicate wells for each drug dilution and the control (cells grown in absence of the drug) were used to calculate the extent of relative cell proliferation (as percentage of the control) and growth inhibition.

MEC1 cells [3] = experiment: MTT cell proliferation assay, MEC1 cells; type: cell-based, human; conditions: for Effect of auranofin and BSO low-dose combination on activity of NF-κB inhibitors, MEC1: auranofin 0.25-0.5 μM plus BSO 1.25-10 μM with BAY 11-7082 or EF24
Description: For metabolic activity assays, here MTT-assays, cell density was 3×10^4 cells per well (96 well plate). For ROS/superoxide detection assays cell density was 1×10^5 per tube (volume 1 ml). For NF-κB family member activation assays nuclear cell extracts were used (9×10^6 cells/6 ml volume in 6 well plates). The MTT or XTT assay is the most reliable for assessment of cell growth. In principal all assays are based on staining of viable cells after treatment. Cytotoxic effects in cell lines may also be assessed by [^3H] thymidine incorporation (see below). Cell proliferation was assessed by the MTT assay. […] The plates were incubated for 72 h under standard conditions. After addition of 15 μl of a 5 mg/ml MTT solution (MTT; Sigma, Germany) to each well and incubation for another 4 h, 100 μl/well of a 10% sodium dodecyl sulphate solution in 0.01 M hydrochloric acid were added and the plates were incubated overnight under the same conditions (stain development). Subsequently, the absorbance of each well at 540 nm (reference wavelength 690 nm) was recorded with an absorbance plate reader (Sunrise, Tecan, Switzerland). Blank control values (no drug, no cells) were subtracted from the sample values and the means of replicate wells for each drug dilution and the control (cells grown in absence of the drug) were used to calculate the extent of relative cell proliferation (as percentage of the control) and growth inhibition.

MEC1 cells [4] = experiment: Intracellular ROS/superoxide detection by flow cytometry, MEC1 cells; type: cell-based, human
Description: (§1) Intracellular ROS/superoxide levels were assessed by the ROS/superoxide Detection Assay Kit (ab139476, Abcam, Cambridge, UK) according to the manufacturer's protocol.
(§2) Cells were incubated with OU749 for 10 minutes prior to addition of serum or albumin (FCS or HS, both 10%, BSA or different HSA preparations as indicated), or albumin-supplemented FCS (supplementation with HSA or BSA: final albumin concentration 4-5 mg/ml). The final cell concentration was 1×10^5/ml/tube (volume 1 ml). Mean fluorescence intensities of at least 10000 events were assessed and compared.
(§3) ROS and superoxide levels were assessed by flow cytometry using the cellular ROS/superoxide Detection Assay Kit (ab139476, Abcam, Cambridge, UK) according to the manufacturer's protocol. […] Mean fluorescence intensities of at least 10000 events were assessed and compared.

MOLM13 cells [5] = experiment: Intracellular ROS/superoxide detection by flow cytometry, MOLM13 cells; type: cell-based, human
Description: as §1, §2, §3

HL60 cells = experiment: MTT cell proliferation assay, HL60 cells; type: cell-based, human; conditions: 200 μM OU749, 10% HS
Description: For assessment of cytostatic and/or cytotoxic effects HL60 cells were washed in serum-free RPMI-1640 medium supplemented with 2 mM L-glutamine and 1% penicillin/streptomycin and diluted to 1.25×10^5/ml (logarithmic cell growth). Cells were incubated with OU749 for 10 minutes prior to addition of serum (FCS or HS, both 10%) to washed cells resulting in a density of 1.11×10^5/ml. For MTT-assays cell density was 1×10^4 cells per well (96 well plate).
The MTT or XTT assay is the most reliable for assessment of cell growth. In principal all assays are based on staining of viable cells after treatment. Cytotoxic effects in cell lines may also be assessed by [^3H] thymidine incorporation (see below). Cell proliferation was assessed by the MTT assay. After washing in serum-free medium, pre-incubation with inhibitors of the glutathione catabolism, and addition of defined serum or albumin or serum+albumin concentrations, 90-μl aliquots of the cell suspension (density see above) were dispensed into 96-well flat-bottomed microtitre plates containing 10 μl/well of serial drug dilutions. The plates were incubated for 72 h under standard conditions. After addition of 15 μl of a 5 mg/ml MTT solution (MTT; Sigma, Germany) to each well and incubation for another 4 h, 100 μl/well of a 10% sodium dodecyl sulphate solution in 0.01 M hydrochloric acid were added and the plates were incubated overnight under the same conditions (stain development). Subsequently, the absorbance of each well at 540 nm (reference wavelength 690 nm) was recorded with an absorbance plate reader (Sunrise, Tecan, Switzerland). Blank control values (no drug, no cells) were subtracted from the sample values and the means of replicate wells for each drug dilution and the control (cells grown in absence of the drug) were used to calculate the extent of relative cell proliferation (as percentage of the control) and growth inhibition. Since inhibitors were initially dissolved in DMSO, serial drug dilutions and controls were prepared to finally achieve 0.2% DMSO in all wells (total volume 100 μl); no anti-proliferative effects could be observed at this DMSO concentration in the investigated cell lines.
After washing in serum-free medium cells were diluted to desired density (3.70×10^5/ml for MEC1 and MOLM13, 1.25×10^5/ml for HL60) and HS and FCS was added both in a final concentration of 10%. Then 90-μl aliquots of the cell suspension (densities after addition of serum: 3.33×10^5/ml for MEC1 and MOLM13, 1.1×10^5/ml for HL60) were dispensed into 96-well flat-bottomed microtitre plates containing 10 μl/well of serial drug dilutions of NF-κB inhibitors. The cell concentrations in the 96 well plate were: 3×10^4/well for MEC1 and MOLM13, 1×10^4/well for HL60.
Then 90-μl aliquots of the cell suspension (densities after addition of serum: 3.33×10^5/ml for MEC1 and MOLM13, 1.1×10^5/ml for HL60) were dispensed into 96-well flat-bottomed microtitre plates containing 10 μl/well of serial drug dilutions of NF-κB inhibitors. The cell concentrations in the 96 well plates were: 3×10^4/well for MEC1 and MOLM13, 1×10^4/well for HL60.

[6] = test system: NF-κB family of transcription factors (p65, p50, c-Rel, p52 and RelB); experiment: NF-κB family member activation (TransAM, nuclear extracts), MEC1 cells; type: cell-based, human; conditions: 200 μM OU749, 10% HS, 4 h
Description: (§4) After 4 h incubation with defined concentrations of inhibitors of the NF-κB signalling pathway with or without co-incubation with OU749, nuclear extracts were prepared using the AM nuclear extract kit (Active Motif, La Hulpe, Belgium) according to the manufacturer's protocol. Protein concentration of the respective extracts was measured according to the Bradford method and 10 μg of total protein per preparation was used for assessment of the NF-κB family member activation.
(§5) For the assessment of NF-κB family member activation (p65, p50, c-Rel, p52 and RelB) the TransAM® NF-κB Family Transcription Factor Assay kit was applied (Active Motif, La Hulpe, Belgium) according to the manufacturer's instructions. Results were expressed as relative activation levels (relative to the activation of DMSO controls either in the presence of 10% FCS or 10% HS) and compared between different experimental settings.

[7] = test system: NF-κB family of transcription factors (p65, p50, c-Rel, p52 and RelB); experiment: NF-κB family member activation (TransAM, nuclear extracts), MOLM13 cells; type: cell-based, human; conditions: 200 μM OU749, 10% HS, 4 h
Description: as §4, §5

[8] = OU749 100 μM for 10% FCS, 200 μM for 10% HS or BSA/HSA 20 mg/ml, versus DMSO
[9] = with BAY 11-7082, 10% FCS (to a lesser extent 10% HS), versus H2O

Structure (SMILES): C/C(O)=C(\C#N)C(=O)Nc1ccc(C(F)(F)F)cc1 [A77 726]
- Achievable plasma concentrations of the active metabolite of leflunomide [1]: about 176 μg/ml; also recorded: about 635 μM

Structure (SMILES): CCCCS(=N)(=O)CCC(N)C(=O)O (centres unmarked) [BSO, buthionine sulfoximine]
- Effect of auranofin and BSO low-dose combination on activity of NF-κB inhibitors, MOLM13 (MOLM13 cells [2]; 10% HS): enhance/restore the activity of NF-κB inhibitors
- Effect of auranofin and BSO low-dose combination on activity of NF-κB inhibitors, MEC1 (MEC1 cells [3]; 10% HS): enhance/restore the activity of NF-κB inhibitors

Structure (SMILES): COc1ccc(Cc2nnc(NS(=O)(=O)c3ccccc3)s2)cc1 [OU749, N-[5-(4-methoxybenzyl)-1,3,4-thiadiazol-2-yl]benzenesulfonamide]
- Toxic effects of OU749 in HS-supplemented systems, MOLM13 (MOLM13 cells [2]; 200 μM OU749, 10% HS): no toxic effects
- OU749 concentration above which anti-proliferative effects are apparent, MOLM13, 10% FCS (MOLM13 cells [2]; 10% FCS, 72 h, single agent): above 50 μM
- OU749 concentration at which anti-proliferative effects appear, MOLM13, 10% HS (MOLM13 cells [2]; 10% HS, 72 h, single agent): ≥ 200 µM
- ROS levels, OU749 versus DMSO, MEC1 in HS medium (MEC1 cells [4]; 200 μM OU749, 10% HS): enhanced ROS levels
- Intracellular ROS levels, OU749 in presence of serum and albumin, MEC1 (MEC1 cells [4]; [8]): increases intracellular ROS levels
- ROS levels, OU749 versus DMSO, MOLM13 in HS medium (MOLM13 cells [5]; 200 μM OU749, 10% HS): enhanced ROS levels
- Intracellular ROS levels, OU749 in presence of serum and albumin, MOLM13 (MOLM13 cells [5]; [8]): increases intracellular ROS levels
- Toxic effects of OU749 in HS-supplemented systems, HL60 (HL60 cells): no toxic effects
- Nuclear levels of NF-κB transcription factors, OU749 alone in HS, MEC1 [6]: increased nuclear levels of different members of the NF-κB family of transcription factors
- Nuclear levels of NF-κB transcription factors, OU749 alone in HS, MOLM13 [7]: increased nuclear levels of different members of the NF-κB family of transcription factors
- Toxic effects of OU749 in HS-supplemented systems, MEC1 (MEC1 cells [3]; 200 μM OU749, 10% HS): no toxic effects
- OU749 concentration above which anti-proliferative effects are apparent, MEC1, 10% FCS (MEC1 cells [3]; 10% FCS, 72 h, single agent): above 50 μM
- OU749 concentration at which anti-proliferative effects appear, MEC1, 10% HS (MEC1 cells [3]; 10% HS, 72 h, single agent): ≥ 200 µM

Structure (SMILES): CC(=O)OC[C@H]1O[C@@H]([S-])[C@H](OC(C)=O)[C@@H](OC(C)=O)[C@@H]1OC(C)=O.CCP(CC)CC.[Au+] [auranofin]
- Effect of auranofin and BSO low-dose combination on activity of NF-κB inhibitors, MOLM13 (MOLM13 cells [2]; 10% HS): enhance/restore the activity of NF-κB inhibitors
- Effect of auranofin and BSO low-dose combination on activity of NF-κB inhibitors, MEC1 (MEC1 cells [3]; 10% HS): enhance/restore the activity of NF-κB inhibitors

Structure (SMILES): N[C@@H](CS)C(=O)NCC(=O)O [cysteinyl-glycin]
- Effect of cysteinyl-glycin on activity of NF-κB inhibitors, MOLM13 (MOLM13 cells [2]; [9]): decrease the activity of NF-κB inhibitors
- Effect of cysteinyl-glycin on activity of NF-κB inhibitors, MEC1 (MEC1 cells [3]; [9]): decrease the activity of NF-κB inhibitors
